According to patent publication US12090147B2, “Combination therapy with 2-(4-chlorophenyl)-N-((2-(2,6-dioxopiperidin-3-yl)-1-oxoisoindolin-5-yl)methyl)-2,2-difluoroacetamide” (Celgene Corporation, priority 2019, dated 2024):
pIC50: −log10 of the molar value.

Legend:
[1] = Hygroscopicity; format: physicochemical
[2] = test system: TF-1; test: Cell viability (CELL TITER-GLO), Compound 1 IC50; format: cell-based; conditions: Homo sapiens; TF-1 (erythroblast, FAB M6)
Experimental: (§1) For CELL TITER-GLO® (CTG; Promega) and Incucyte assays, cells were seeded at 0.1 million per mL, 50 μL per well of Corning black 384-well plate and allowed set overnight. The next day, test compounds were dispensed using a Tecan D300e digital dispenser according to manufacturer's instruction.
(§2) Human AML cell lines, HL-60 (CCL-240), KG-1 (CCL-246), ML-2 (ACC-15), MOLM-13 (ACC-554), MV-4-11 (CRL-9591), NOMO-1 (ACC-542), TF-1 (CRL-2003), THP-1 (TIB-202), and U937 (CRL-1593) were obtained from American Type Culture Collection (ATCC; Manassas, VA) or Deutsche Sammlung von Mikroorganismen and Zellkulturen (DSMZ, Germany) cell banks. Acute myeloid leukemia cell lines were maintained in RPMI-1640 (ATCC Cat No. 30-2001) containing 20% fetal bovine serum (FBS) (Corning Cat No. 35-010-CV) and maintained in humidified incubators at 5% carbon dioxide.
(§3) AML cell lines and primary AML were treated in duplicate or triplicates with DMSO or test compounds in 384-well plates for 3 days. Cell viability was determined by CELL TITER-GLO® (CTG; Promega) assay kit according to manufacturer's instructions. Apoptosis was monitored using Caspase 3/7 Green reagent (Essen Biosciences Cat No. 4440). Caspase-3/7 activation levels were quantified using the IncuCyte™ ZOOM basic analyzer.
(§4) Cell proliferation (CTG) and caspase 3/7 activation (IncuCyte) were analyzed using GraphPad Prism. Electrochemiluminescence data was analyzed using MSD Discovery Workbench platform.

[3] = test system: NOMO-1; test: Cell viability (CELL TITER-GLO), Compound 1 IC50; format: cell-based; conditions: Homo sapiens; NOMO-1 (macrophage, FAB M5a)
Experimental: as §1, §2, §3, §4

[4] = test system: MOLM-13; test: Cell viability (CELL TITER-GLO), Compound 1 IC50; format: cell-based; conditions: Homo sapiens; MOLM-13 (monocytic, FAB M5a)
Experimental: as §1, §2, §3, §4

[5] = test system: MV4-11; test: Cell viability (CELL TITER-GLO), Compound 1 IC50; format: cell-based; conditions: Homo sapiens; MV4-11 (acute myeloid leukemia, FAB M5)
Experimental: as §1, §2, §3, §4

[6] = test system: KG-1; test: Cell viability (CELL TITER-GLO), Compound 1 IC50; format: cell-based; conditions: Homo sapiens; KG-1 (myeloblast, FAB M0)
Experimental: as §1, §2, §3, §4

[7] = pH 5
[8] = test system: ML-2; test: Cell viability (CELL TITER-GLO), Compound 1 IC50 / dose response; format: cell-based; conditions: Homo sapiens; ML-2 (monocytic, FAB M4)
Experimental: as §1
Human AML cell lines, HL-60 (CCL-240), KG-1 (CCL-246), ML-2 (ACC-15), MOLM-13 (ACC-554), MV-4-11 (CRL-9591), NOMO-1 (ACC-542), TF-1 (CRL-2003), THP-1 (TIB-202), and U937 (CRL-1593) were obtained from American Type Culture Collection (ATCC; Manassas, VA) or Deutsche Sammlung von Mikroorganismen and Zellkulturen (DSMZ, Germany) cell banks. […]
as §3, §4

[9] = physchem; conditions: aqueous buffer
[10] = test system: ML-2, MV4-11 and MOLM13 cell lines; test: VEGF and TNFa levels, electrochemiluminescence assay; format: cell-based, human; conditions: compared to other mechanistic agents
Experimental: IL-1α (Meso Scale Disgnostics, Cat No. K151RBD), IL-1β (Meso Scale Disgnostics, Cat No. K151QPD), IL-1RA (Meso Scale Disgnostics, Cat No. K151WTD), IL-18 (Meso Scale Disgnostics, Cat No. K151VJK), TNFa (Meso Scale Disgnostics, Cat No. K151QWD), VEGF Meso Scale Disgnostics, Cat No. K151RHD) levels were measured by (Meso Scale Disgnostics assay kits following manufacturer's instructions. Measurements were made on a MESO™ SECTOR S 600 plate reader (Meso Scale Disgnostics).
To further explore the mechanisms underlying IL-1β induction by Compound 1, and compounds with different, but related mechanisms to Compound 1 were tested in three AML cell lines, ML-2, MV4-11 and MOLM-13 (FIG. 4 and FIG. 5). Compound 1 degrades GSPT1 through cereblon mediated protein degradation, which leads to global translation inhibition, activation of ISR and subsequently apoptosis. […] To assess if GSPT1 degradation leads to pan-cytokine induction or specific to IL-1β, the compound effect was compared on the levels of two other known hypotension inducing cytokines, TNFa and VEGF (FIG. 7).

[11] = test system: isogenic MV4-11 Cas9 cell pair (GCN2); test: Isogenic cell pair, wildtype GCN2 vs GCN2 deleted; format: cell-based, human
Excerpt: ISR, especially via GCN2 pathway, is one of the key pathways contributed to GSPT1 mediated cell death. GCN2 knock down blocked ATF4 and CHOP induction by Compound 1, and suppressed caspase 3 and caspase 8 activation. GCN2 has been implicated in IL-1β production. GCN2 activation inhibit classical caspase 1 mediated inflammasome activation in intestinal cells and that GCN2 knock down in CD11c+ antigen presenting cells or intestinal epithelial cells leads to enhanced inflammasome activation and IL-1β production. (Ravindran et al. Nature. 2016, 531(7595):523-527). To understand if Compound 1 mediated IL-1β induction is downstream of GCN2 pathway, an isogenic MV4-11 Cas9 cell pair either expressing endogenous wildtype GCN2 or with the gene deleted was used. GCN2 knock down suppressed the induction of phosphor-eIF2a, ATF4, CHOP and cleaved caspase 8 by Compound 1 (FIG. 9A). […] These evidences pointed that pro-[…] up-regulation and secreted IL-1β induction are both downstream effects of GCN2 pathway activation, and distinct from the GCN2 mediated classical inflammasome pathway inhibition reported in gut cells (Ravindran et al. Nature. 2016, 531(7595):523-527).

Question: What does the source list for `O=C1CCC(N2Cc3cc(CNC(=O)C(F)(F)c4ccc(Cl)cc4)ccc3C2=O)C(=O)N1` (stereo not shown) [Compound 1, 2-(4-chlorophenyl)-N-((2-(2,6-dioxopiperidin-3-yl)-1-oxoisoindolin-5-yl)methyl)-2,2-difluoroacetamide]?
Answer: Hygroscopicity [1]: Not hygroscopic; pIC50 [2]: 6.98; pIC50 [3]: 7.24; pIC50 [4]: 7.12; pIC50 [5]: 7.76; pIC50 [6]: 8.05; Solution Stability [7]: DS is not stable in solution at pH of 5.0 or above.; pIC50 [8]: 7.82; solubility [9]: ≤ 1 µg/mL; VEGF and TNFa levels [10]: did not induce more VEGF nor TNFa compared to other mechanistic agents; Induction of phosphor-eIF2a, ATF4, CHOP and cleaved caspase 8 ([11]; GCN2 knock down): suppressed; Intracellular and supernatant IL-1β induction ([11]; GCN2 knock out cells compared to parental cells): markedly suppressed; Pro-IL-1β upregulation ([11]; absence of GCN2): abolished
